Assay results: patent publication US10316032B2, “Solid forms of a compound for modulating kinases” (Plexxikon Inc., priority 2015, dated 2019)
≈ marks a conversion by molar mass, not a printed value. One block for each compound: values may come before it.

What was measured:
[1] = Solubility estimates at ambient temperature (solvent aliquot addition, visual); type: physicochemical; conditions: thermodynamic from solid
Experimental: Aliquots of various solvents were added to measured amounts of Compound I with agitation (typically sonication) at ambient temperature until complete dissolution was achieved, as judged by visual observation. Solubilities were calculated based on the total solvent used to give a solution; actual solubilities may be greater because of the volume of solvent portions utilized or a slow rate of dissolution. […] If dissolution occurred at the first aliquot the value was reported as “>”.

[2] = Interconversion (competitive slurry) experiments Form B / Form H; type: physicochemical; conditions: various solvent systems, between ambient temperature and approximately 75° C.
Experimental: Solutions of Compound I were prepared by adding sufficient solids to a given solvent or solvent system at ambient conditions such that undissolved solids were present. The mixture was then agitated in a closed vial at ambient or elevated temperature for an extended period of time. Solids were collected by vacuum filtration and analyzed.

B-Raf V600E kinase = B-Raf V600E kinase (Homo sapiens, UniProt P15056, V600E); assay: B-Raf V600E kinase inhibition
Sequence of B-Raf V600E kinase (P15056 whole entry V600E): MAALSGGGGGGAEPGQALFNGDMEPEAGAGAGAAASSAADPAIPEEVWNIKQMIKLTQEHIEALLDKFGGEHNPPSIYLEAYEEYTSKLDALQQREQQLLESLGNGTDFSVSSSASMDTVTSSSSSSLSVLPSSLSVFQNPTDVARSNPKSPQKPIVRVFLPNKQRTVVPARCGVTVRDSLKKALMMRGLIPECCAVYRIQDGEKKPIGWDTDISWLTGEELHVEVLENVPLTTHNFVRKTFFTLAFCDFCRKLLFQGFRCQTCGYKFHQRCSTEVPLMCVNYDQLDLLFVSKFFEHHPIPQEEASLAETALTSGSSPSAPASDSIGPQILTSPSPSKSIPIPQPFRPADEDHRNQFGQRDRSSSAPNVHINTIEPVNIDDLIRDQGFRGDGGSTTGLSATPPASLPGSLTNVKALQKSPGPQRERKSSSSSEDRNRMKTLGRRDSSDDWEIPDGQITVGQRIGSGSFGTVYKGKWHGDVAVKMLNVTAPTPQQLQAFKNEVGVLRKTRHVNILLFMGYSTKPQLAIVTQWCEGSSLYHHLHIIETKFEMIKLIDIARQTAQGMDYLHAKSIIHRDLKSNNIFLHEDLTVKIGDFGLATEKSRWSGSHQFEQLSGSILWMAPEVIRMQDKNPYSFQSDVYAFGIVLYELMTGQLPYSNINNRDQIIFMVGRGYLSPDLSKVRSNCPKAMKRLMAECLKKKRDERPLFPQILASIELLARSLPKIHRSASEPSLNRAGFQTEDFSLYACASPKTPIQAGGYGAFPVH

solubility ([1]; aqueous with cosolvent or surfactant or cyclodextrin, EtOH/Water (75/25 vol/vol)): ~5000 µg/mL (≈ 9.22 mM)
solubility ([1]; organic solvent or mixture, ACN): ~5000 µg/mL (≈ 9.22 mM)
solubility ([1]; organic solvent or mixture, Acetone): ~36000 µg/mL (≈ 66.4 mM)
solubility ([1]; organic solvent or mixture, DCM): < 1000 µg/mL
solubility ([1]; organic solvent or mixture, DMF): > 97000 µg/mL
solubility ([1]; organic solvent or mixture, DMSO): > 84000 µg/mL
solubility ([1]; organic solvent or mixture, Dioxane): > 103000 µg/mL
solubility ([1]; organic solvent or mixture, EtOAc): ~5000 µg/mL (≈ 9.22 mM)
solubility ([1]; organic solvent or mixture, EtOH): ~1000 µg/mL (≈ 1.84 mM)
solubility ([1]; organic solvent or mixture, Heptane): < 1000 µg/mL
solubility ([1]; organic solvent or mixture, IPA): < 1000 µg/mL
solubility ([1]; organic solvent or mixture, MTBE): < 2000 µg/mL
solubility ([1]; organic solvent or mixture, MeOH): ~4000 µg/mL (≈ 7.37 mM)
solubility ([1]; organic solvent or mixture, THF): > 102000 µg/mL
solubility ([1]; organic solvent or mixture, t-BuOH): < 2000 µg/mL
solubility ([1]; Water): < 1000 µg/mL
relative stability of solid forms (competitive slurry) ([2]; listed as Form B): less stable than Form H
Structure (SMILES): O=C(c1c(F)ccc(NS(=O)(=O)N2CC[C@@H](F)C2)c1F)c1c[nH]c2ncc(-c3cnc(C4CC4)nc3)cc12 [Compound I Form B, (3R)—N-(3-(5-(2-cyclopropylpyrimidin-5-yl)-1H-pyrrolo[2,3-b]pyridine-3-carbonyl)-2,4-difluorophenyl)-3-fluoropyrrolidine-1-sulfonamide]

relative stability of solid forms (competitive slurry) ([2]; listed as Form H): more stable than Form B
Structure (SMILES): O=C(c1c(F)ccc(NS(=O)(=O)N2CC[C@@H](F)C2)c1F)c1c[nH]c2ncc(-c3cnc(C4CC4)nc3)cc12 [Compound I Form H, (3R)—N-(3-(5-(2-cyclopropylpyrimidin-5-yl)-1H-pyrrolo[2,3-b]pyridine-3-carbonyl)-2,4-difluorophenyl)-3-fluoropyrrolidine-1-sulfonamide]

IC50 (B-Raf V600E kinase): < 100 nM
Structure (SMILES): O=C(c1c(F)ccc(NS(=O)(=O)N2CC[C@@H](F)C2)c1F)c1c[nH]c2ncc(-c3cnc(C4CC4)nc3)cc12 [Compound I, (3R)—N-(3-(5-(2-cyclopropylpyrimidin-5-yl)-1H-pyrrolo[2,3-b]pyridine-3-carbonyl)-2,4-difluorophenyl)-3-fluoropyrrolidine-1-sulfonamide]
